ChEMBL document CHEMBL3885861, “Open TG-GATES”

Species on record: Rattus norvegicus
Assay: Open TG-GATES - Regimen: Single
Format: toxicity, organism-based, Sprague-Dawley
Set-up: regimen Single, gender Male, age 6 weeks
Conditions: in vivo, po, 0 mg/kg, route gavage, dose level Control; for APTT / Bas / Eos / Fbg / Hb / Ht / Lym / MCH / MCHC / MCV / Mono / Neu / PT / Plat / RBC / Ret / WBC: tissue Blood; for KIDNEY_L / KIDNEY_R / KIDNEY_TOTAL: tissue Kidney; for LIVER: tissue Liver; for A/G / ALP / ALT / AST / BUN / CRE / Ca / Cl / DBIL / GLC / IP / K / LDH / Na / PL / RALB / TBIL / TC / TG / TP / gamma-GTP: tissue Plasma

`CC(=O)Nc1ccc2c(c1)Cc1ccccc1-2` [2-ACETYLAMINOFLUORENE] was tested. Which TERMINAL_BW (3 h) did it give?
Its TERMINAL_BW is 224.8 g.

What about the APTT (3 h) of the same compound?
Its APTT is 20.9 s.

And the Bas (3 h)?
Its Bas is 0%.

What about the Eos (3 h) of the same compound?
Its Eos is 1%.

And the Fbg (3 h)?
Its Fbg is 222.8 mg/dL.

What about the Hb (3 h) of the same compound?
The Hb was 13.6 g/dL.

What about the Ht (3 h) of the same compound?
Its Ht is 39.5%.

What about the Lym (3 h) of the same compound?
The Lym was 76.8%.

What about the MCH (3 h) of the same compound?
The MCH was 21.5 pg.

And the MCHC (3 h)?
Its MCHC is 34.5%.

What about the MCV (3 h) of the same compound?
The MCV was 62.4 fL.

And the Mono (3 h)?
Its Mono is 2.4%.

What about the Neu (3 h) of the same compound?
The Neu was 18.4%.

What about the PT (3 h) of the same compound?
Its PT is 11.9 s.

And the Plat (3 h)?
The Plat was 128.1 x10_4/uL.

What about the RBC (3 h) of the same compound?
The RBC was 632.6 x10_4/ul.

What about the Ret (3 h) of the same compound?
Its Ret is 7.4%.

What about the WBC (3 h) of the same compound?
Its WBC is 87.7 x10_2/uL.

And the KIDNEY_L (3 h)?
The KIDNEY_L was 1 g.

What about the KIDNEY_R (3 h) of the same compound?
Its KIDNEY_R is 1 g.

What about the KIDNEY_TOTAL (3 h) of the same compound?
Its KIDNEY_TOTAL is 2 g.

And the LIVER (3 h)?
The LIVER was 10.3 g.

What about the A/G (3 h) of the same compound?
Its A/G is 1.7.

What about the ALP (3 h) of the same compound?
Its ALP is 1018.4 IU/L.

What about the ALT (3 h) of the same compound?
Its ALT is 36.6 IU/L.

And the AST (3 h)?
Its AST is 77.4 IU/L.

What about the BUN (3 h) of the same compound?
Its BUN is 10.8 mg/dL.

What about the CRE (3 h) of the same compound?
Its CRE is 0.4 mg/dL.

What about the Ca (3 h) of the same compound?
Its Ca is 10.5 mg/dL.

And the Cl (3 h)?
The Cl was 103.2 meq/L.

And the DBIL (3 h)?
The DBIL was 0.072 mg/dL.

And the GLC (3 h)?
Its GLC is 194.8 mg/dL.

And the IP (3 h)?
The IP was 9.7 mg/dL.

What about the K (3 h) of the same compound?
Its K is 4 meq/L.

And the LDH (3 h)?
The LDH was 161.8 IU/L.

What about the Na (3 h) of the same compound?
Its Na is 141 meq/L.

What about the PL (3 h) of the same compound?
The PL was 141.6 mg/dL.

What about the RALB (3 h) of the same compound?
The RALB was 3.4 g/dL.

And the TBIL (3 h)?
The TBIL was 0.1 mg/dL.

And the TC (3 h)?
Its TC is 77.8 mg/dL.

And the TG (3 h)?
The TG was 61.6 mg/dL.

What about the TP (3 h) of the same compound?
Its TP is 5.5 g/dL.

What about the gamma-GTP (3 h) of the same compound?
The gamma-GTP was 0.8 IU/L.

And the TERMINAL_BW (6 h)?
Its TERMINAL_BW is 219.6 g.

And the APTT (6 h)?
Its APTT is 20.9 s.

What about the Bas (6 h) of the same compound?
Its Bas is 0.6%.

What about the Eos (6 h) of the same compound?
The Eos was 0.6%.

What about the Fbg (6 h) of the same compound?
Its Fbg is 225.4 mg/dL.

And the Hb (6 h)?
The Hb was 14.2 g/dL.

What about the Ht (6 h) of the same compound?
Its Ht is 40.9%.

And the Lym (6 h)?
The Lym was 78.2%.

And the MCH (6 h)?
The MCH was 21.8 pg.

What about the MCHC (6 h) of the same compound?
The MCHC was 34.6%.

What about the MCV (6 h) of the same compound?
Its MCV is 63.1 fL.

And the Mono (6 h)?
Its Mono is 2.8%.

And the Neu (6 h)?
Its Neu is 16.8%.

And the PT (6 h)?
Its PT is 12.2 s.

And the Plat (6 h)?
The Plat was 131.8 x10_4/uL.

And the RBC (6 h)?
The RBC was 649.8 x10_4/ul.

What about the Ret (6 h) of the same compound?
The Ret was 6.9%.

What about the WBC (6 h) of the same compound?
The WBC was 108.9 x10_2/uL.

What about the KIDNEY_L (6 h) of the same compound?
Its KIDNEY_L is 1 g.

And the KIDNEY_R (6 h)?
Its KIDNEY_R is 1 g.

And the KIDNEY_TOTAL (6 h)?
Its KIDNEY_TOTAL is 2 g.

And the LIVER (6 h)?
The LIVER was 9.3 g.

What about the A/G (6 h) of the same compound?
Its A/G is 1.7.

And the ALP (6 h)?
The ALP was 956.2 IU/L.

And the ALT (6 h)?
Its ALT is 32.4 IU/L.

What about the AST (6 h) of the same compound?
The AST was 70.4 IU/L.

And the BUN (6 h)?
Its BUN is 9.6 mg/dL.

What about the CRE (6 h) of the same compound?
Its CRE is 0.4 mg/dL.

What about the Ca (6 h) of the same compound?
The Ca was 10.5 mg/dL.

What about the Cl (6 h) of the same compound?
The Cl was 101.4 meq/L.

And the DBIL (6 h)?
The DBIL was 0.076 mg/dL.

What about the GLC (6 h) of the same compound?
The GLC was 196 mg/dL.

And the IP (6 h)?
Its IP is 9.7 mg/dL.

What about the K (6 h) of the same compound?
Its K is 4.2 meq/L.

And the LDH (6 h)?
Its LDH is 166.6 IU/L.

What about the Na (6 h) of the same compound?
The Na was 140.4 meq/L.

What about the PL (6 h) of the same compound?
The PL was 139 mg/dL.

What about the RALB (6 h) of the same compound?
The RALB was 3.4 g/dL.

And the TBIL (6 h)?
Its TBIL is 0.1 mg/dL.

And the TC (6 h)?
The TC was 72.2 mg/dL.

And the TG (6 h)?
The TG was 89.8 mg/dL.

And the TP (6 h)?
The TP was 5.4 g/dL.

What about the gamma-GTP (6 h) of the same compound?
Its gamma-GTP is 1.2 IU/L.
